According to ChEMBL document CHEMBL1806470, “Synthesis and antiglycation potentials of bergenin derivatives” (Bioorg Med Chem Lett, 2011):

Assays:
[1] = target: T1, Albumin (Bos taurus, UniProt P02769); experiment: Antiglycation activity in bovine serum albumin assessed as inhibition of fructosamines formation at 200 uM in presence of glucose; details: cattle
[2] = Antiglycation activity assessed as inhibition of advanced glycation end product formation; format: physicochemical
[3] = Antiglycation activity assessed as inhibition of dicarbonyl compounds formation; format: physicochemical
[4] = target: T1, Albumin; experiment: Antiglycation activity in bovine serum albumin assessed as inhibition of fructosamines formation in presence of glucose
[5] = Antiglycation activity assessed as inhibition of Schiff-base formation at 200 uM; format: physicochemical
[6] = Antiglycation activity assessed as inhibition of advanced glycation end product formation at 200 uM; format: physicochemical
[7] = Antiglycation activity assessed as inhibition of Schiff-base formation; format: physicochemical
[8] = Antioxidant activity assessed as ABTS free radical scavenging activity
[9] = Antiglycation activity assessed as inhibition of dicarbonyl compounds formation at 200 uM; format: physicochemical

T1 sequence (P02769 whole entry): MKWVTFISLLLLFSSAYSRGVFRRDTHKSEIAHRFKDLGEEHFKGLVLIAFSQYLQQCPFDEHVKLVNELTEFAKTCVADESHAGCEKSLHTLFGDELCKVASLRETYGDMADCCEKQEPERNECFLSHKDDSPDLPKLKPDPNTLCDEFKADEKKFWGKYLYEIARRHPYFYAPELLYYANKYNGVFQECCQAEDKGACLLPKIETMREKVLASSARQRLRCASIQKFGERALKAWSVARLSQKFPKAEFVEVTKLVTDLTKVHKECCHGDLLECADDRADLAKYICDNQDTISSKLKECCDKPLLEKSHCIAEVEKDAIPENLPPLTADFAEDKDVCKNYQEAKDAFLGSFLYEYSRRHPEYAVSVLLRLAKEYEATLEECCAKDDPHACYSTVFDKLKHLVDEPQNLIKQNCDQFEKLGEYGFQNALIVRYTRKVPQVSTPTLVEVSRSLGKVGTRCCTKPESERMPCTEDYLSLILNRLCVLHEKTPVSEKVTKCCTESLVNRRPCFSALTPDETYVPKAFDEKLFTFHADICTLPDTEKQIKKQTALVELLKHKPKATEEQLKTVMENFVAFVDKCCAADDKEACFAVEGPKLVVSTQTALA

COc1c(O)cc2c(c1O)[C@@H]1O[C@H](COC(=O)c3cccc(O)c3O)[C@@H](O)[C@H](O)[C@H]1OC2=O
inhibition at 200 µM [1]: 26.2% | IC50 [2]: 60.8 µM | IC50 [3]: 8.95 µM | IC50 [4]: 322 µM | inhibition (INH) [5]: 97.86% | inhibition (INH) [6]: 93.27% | IC50 [7]: 76 µM | IC50 [8]: 1.7 µM | inhibition (INH) [9]: 97.77%

COc1c(O)cc2c(c1O)[C@@H]1O[C@H](COC(=O)c3cc(O)c(O)c(O)c3)[C@@H](O)[C@H](O)[C@H]1OC2=O
inhibition at 200 µM [1]: 22.2% | IC50 [2]: 12.3 µM | IC50 [4]: 184 µM | inhibition (INH) [5]: 95.96% | inhibition (INH) [6]: 83.62% | IC50 [7]: 9.06 µM | IC50 [8]: 1.5 µM | inhibition (INH) [9]: 102.22%

COc1ccc(C(=O)OC[C@H]2O[C@H]3c4c(cc(O)c(OC)c4O)C(=O)O[C@@H]3[C@@H](O)[C@@H]2O)c([N+](=O)[O-])c1
inhibition at 200 µM [1]: 17.5% | inhibition (INH) [6]: Not Active | IC50 [8]: 4.4 µM

COc1c(O)cc2c(c1O)[C@@H]1O[C@H](CO)[C@@H](O)[C@H](O)[C@H]1OC2=O [BERGENIN]
inhibition at 200 µM [1]: 20.6% | IC50 [2]: 187 µM | IC50 [4]: 164 µM | inhibition (INH) [5]: 109.4% | inhibition (INH) [6]: 75.69% | IC50 [7]: 0.00054 µM | IC50 [8]: 2 µM | inhibition (INH) [9]: 102.66%

COc1cc(C(=O)OC[C@H]2O[C@H]3c4c(cc(O)c(OC)c4O)C(=O)O[C@@H]3[C@@H](O)[C@@H]2O)ccc1O
inhibition at 200 µM [1]: 36.5% | inhibition (INH) [6]: Not Active | IC50 [8]: 4.2 µM

COc1c(O)cc2c(c1O)[C@@H]1O[C@H](COC(=O)c3ccc([N+](=O)[O-])cc3)[C@@H](O)[C@H](O)[C@H]1OC2=O
inhibition at 200 µM [1]: 21.4% | inhibition (INH) [6]: Not Active | IC50 [8]: 3.6 µM

COc1cc(C(=O)OC[C@H]2O[C@H]3c4c(cc(O)c(OC)c4O)C(=O)O[C@@H]3[C@@H](O)[C@@H]2O)cc(OC)c1OC
inhibition at 200 µM [1]: 42.1% | inhibition (INH) [6]: Not Active | IC50 [8]: 3.2 µM

COc1c(O)cc2c(c1O)[C@@H]1O[C@H](COC(=O)/C=C/c3ccccc3)[C@@H](O)[C@H](O)[C@H]1OC2=O
inhibition (INH) ([1]; 200 µM): Not Active | inhibition (INH) [6]: Not Active | IC50 [8]: 3 µM

COc1c(O)cc2c(c1O)[C@@H]1O[C@H](COC(=O)c3ccccc3)[C@@H](O)[C@H](O)[C@H]1OC2=O
inhibition at 200 µM [1]: 49.2% | inhibition (INH) [6]: Not Active | IC50 [8]: 3.5 µM

N=C(N)NN [PIMAGEDINE]
IC50 [2]: 88.9 µM | inhibition (INH) [6]: 79.67%
